Test results reported in US9540338B2, “Substituted cinnamic acid amides for treating pain” (NIPPON ZOKI PHARMACEUTICAL CO., LTD., priority 2012, dated 2017).
Structures can show the parent of a compound that is named as a salt. Marks after values point to notes of the source that are not given here.

Legend:
Chung model rat = test: Analgesic efficacy test (2): Chung model rat, neuropathic pain model (allodynia, von Frey filament); type: in vivo, rats; settings: mean ± standard error
Procedure: An analgesic efficacy test was conducted using a Chung model rat, a neuropathic pain model. Nine-week old Wistar male rats were previously bred as an experimental animal, and a model rat was then prepared in accordance with the method of Kim and Chung (Pain, 50, 355-363, 1992). Specifically, left L5 spinal nerves of rats were exposed under anesthetization with pentobarbital (40 mg/kg, intraperitoneal administration), and firmly ligated with 5-0 silk yarn at L5 dorsal root ganglion peripheral side. The animals were placed in a transparent acrylic cage of which bottom was wire netted The measurement of allodynia was carried out using von Frey filament (manufactured by North Coast Medical Inc.) and a 50% reaction threshold was calculated according to an up-down method, in accordance with a method of Chaplan et al. (J. Neurosci. Method, 53, 55-63, 1994). The 50% reaction thresholds were measured twice before injury of the spinal nerve, and those animals of which thresholds were outside the standard were removed from the operation of spinal nerve injury. On or after 14 days from the spinal nerve injury, a 50% reaction threshold was measured, and those showing thresholds of 1 g or more and less than 4 g were used as experimental animal. The group was constituted by 7 or 8 rats per group so that an average of a 50% reaction threshold for each group would be nearly even.
A solution or suspension prepared by dissolving or suspending a compound of the present invention in a 0.5% (w/v) aqueous CMC-Na solution was orally administered as a test substance in a single dose. Also, a 0.5% (w/v) aqueous CMC-Na solution was administered in the same manner to the control group for nerve injury. The measurements of allodynia were carried out with the passage of time after administration, and a 50% reaction threshold (mean±standard error) of each group at action peak was calculated. In the test for significance difference, Bartlett's test was carried out in the comparison between multiple groups of the group administered with test substance with the control group for nerve injury. In the case of homoscedasticity, Dunnett's multiple comparison test of parametrics, and in the case of heteroscedasticity, Dunnett's multiple comparison test of non-parametrics were used. In all cases, significance difference was considered to be found at P<0.05 (indicated as “*” in the tables).

ddY-type mice = test: Analgesic efficacy test (1): acetic acid writhing test; type: in vivo; settings: Mus musculus, writhing number, mean ± standard error, 8 mice per group, read-out: Suppressive Rate; for inhibition in vivo at 10 mg/kg: oral single dose 10 mg/kg; for inhibition in vivo at 100 mg/kg: oral single dose 100 mg/kg
Excerpt: A compound of the present invention was orally administered to mice, to carry out an analgesic efficacy test according to acetic acid writhing test. As an experimental animal, 4-week old male ddY-type mice were previously bred, and thereafter 8 mice per one group were used in the experiment. A solution or suspension prepared by dissolving or suspending a compound of the present invention in a 0.5% (w/v) aqueous CMC-Na solution was orally administered as a test substance in a single dose. While, to a control group, a 0.5% (w/v) aqueous CMC-Na solution was administered in the same manner After 25 minutes from administration, the mice were intraperitoneally administered with a 0.7% (v/v) acetic acid/physiological saline at the dose of 10 mL/kg. From 5 minutes thereafter, writhing number in a 10-minute period was counted, and a suppressive rate for each individual (mean±standard error) was calculated by the following formula: […]
In the test for significance difference, Bartlett's test was carried out in the comparison between multiple groups of the group administered with test substance with the control group. In the case of homoscedasticity, Dunnett's multiple comparison test of parametrics, and in the case of heteroscedasticity, Dunnett's multiple comparison test of non-parametrics were used. In addition, in the test of dose dependency, Jonckheere-Terpstra's test was used. In all cases, significance difference was considered to be found at P<0.05 (indicated as “*” in the table).

[1] = oral 1 mg/kg, measurement point 90 minute (action peak)
[2] = oral 10 mg/kg, measurement point 90 minute (action peak)
[3] = oral 1 mg/kg, measurement point 60 minute (action peak)
[4] = oral 10 mg/kg, measurement point 60 minute (action peak)
[5] = oral 1 mg/kg, measurement point 30 minute (action peak)
[6] = oral 10 mg/kg, measurement point 30 minute (action peak)

| Compound | 50% Reaction Threshold, Group Administered with Test Substance, After Administration (Chung model rat; [1]) | 50% Reaction Threshold, Group Administered with Test Substance, After Administration (Chung model rat; [2]) | melting point | 50% Reaction Threshold, Group Administered with Test Substance, After Administration (Chung model rat; [3]) | 50% Reaction Threshold, Group Administered with Test Substance, After Administration (Chung model rat; [4]) | further results |
| --- | --- | --- | --- | --- | --- | --- |
| O=C(/C=C/c1ccccc1F)NCCc1c[nH]c2ccccc12 [Compound 1, (E)-3-(2-Fluorophenyl)-N-[2-(1H-indol-3-yl)ethyl]-2-propenamide] | 6.71 ± 1.33 g | 14.06 ± 0.61* g | – | – | – | inhibition in vivo at 10 mg/kg (ddY-type mice): 46.9 ± 7.6%; inhibition in vivo at 100 mg/kg (ddY-type mice): 62.7 ± 6% |
| CN1CCN(CCCNC(=O)/C=C/c2ccccc2F)CC1 [Compound 15, (E)-3-(2-Fluorophenyl)-N-[3-(4-methylpiperazin-1-yl)propyl]-2-propenamide dihydrochloride] | 7.45 ± 1.95* g | 7.43 ± 1.63* g | – | – | – | inhibition in vivo at 10 mg/kg (ddY-type mice): 24.3 ± 12.7%; inhibition in vivo at 100 mg/kg (ddY-type mice): 44.1 ± 6.6% |
| O=C(/C=C/c1ccccc1F)NCCN1CCNCC1 [Compound 16, (E)-3-(2-Fluorophenyl)-N-[2-(piperazin-1-yl)ethyl]-2-propenamide dihydrochloride] | 5.48 ± 0.82 g | 7.48 ± 1.30 g | – | – | – | inhibition in vivo at 10 mg/kg (ddY-type mice): 42.6 ± 9.1%; inhibition in vivo at 100 mg/kg (ddY-type mice): 65.5 ± 8.9% |
| Cl.O=C(/C=C/c1ccccc1F)NCCn1ccnc1 [Compound 21, (E)-3-(2-Fluorophenyl)-N-[2-(imidazol-1-yl)ethyl]-2-propenamide hydrochloride] | 11.78 ± 1.20* g | – | – | – | – | 50% Reaction Threshold, Group Administered with Test Substance, After Administration (Chung model rat; oral 0.1 mg/kg, measurement point 90 minute (action peak)): 6.04 ± 0.89 g; 50% Reaction Threshold, Group Administered with Test Substance, After Administration (Chung model rat; oral 0.3 mg/kg, measurement point 90 minute (action peak)): 8.80 ± 1.42* g; inhibition in vivo at 10 mg/kg (ddY-type mice): 44.5 ± 11.7%; inhibition in vivo at 100 mg/kg (ddY-type mice): 49.7 ± 4.7% |
| O=C(/C=C/c1ccc(F)cc1)Nc1ccc(N2CCOCC2)cc1 [Compound 33, (E)-3-(4-Fluorophenyl)-N-[4-morpholinophenyl]-2-propenamide] | – | – | 223 to 224 °C | 8.93 ± 1.46* g | 9.35 ± 2.10* g | – |
| O=C(/C=C/c1ccccc1F)NCCn1cccn1 [Compound 38, (E)-3-(2-Fluorophenyl)-N-[2-(pyrazol-1-yl)ethyl]-2-propenamide] | 2.74 ± 0.23 g | 4.06 ± 0.52* g | 124 to 126 °C | – | – | – |
| O=C(/C=C/c1ccccc1F)NCCn1ccnn1 [Compound 40, (E)-3-(2-Fluorophenyl)-N-[2-([1,2,3]triazol-1-yl)ethyl]-2-propenamide] | – | – | 110 to 112 °C | 3.61 ± 0.41 g | 5.86 ± 1.17* g | – |
| Cc1nccn1CCNC(=O)/C=C/c1ccccc1F [Compound 42, (E)-3-(2-Fluorophenyl)-N-[2-(2-methylimidazol-1-yl)ethyl]-2-propenamide] | – | – | 127 to 129 °C | – | – | 50% Reaction Threshold, Group Administered with Test Substance, After Administration (Chung model rat; [5]): 2.60 ± 0.32 g; 50% Reaction Threshold, Group Administered with Test Substance, After Administration (Chung model rat; [6]): 4.24 ± 0.35* g |
| C/C(=C\c1ccc(F)cc1)C(=O)NCCCN1CCOCC1 [Compound 46, (E)-3-(4-Fluorophenyl)-2-methyl-N-(3-morpholinopropyl)-2-propenamide] | – | – | 78 to 79 °C | – | – | 50% Reaction Threshold, Group Administered with Test Substance, After Administration (Chung model rat; [5]): 7.51 ± 1.60* g; 50% Reaction Threshold, Group Administered with Test Substance, After Administration (Chung model rat; [6]): 8.70 ± 1.43* g |
| O=C(/C=C/c1ccccc1F)Nc1cccc(-c2ccno2)c1 [Compound 54, (E)-3-(2-Fluorophenyl)-N-[3-(isoxazol-5-yl)phenyl]-2-propenamide] | – | – | 185 to 187 °C | – | – | 50% Reaction Threshold, Group Administered with Test Substance, After Administration (Chung model rat; [5]): 5.18 ± 0.81 g; 50% Reaction Threshold, Group Administered with Test Substance, After Administration (Chung model rat; [6]): 11.20 ± 1.19* g |
| O=C(/C=C/c1ccc(F)cc1)NCCCN1CCSCC1 [Compound 60, (E)-3-(4-Fluorophenyl)-N-(3-thiomorpholinopropyl)-2-propenamide] | – | – | 121 to 122 °C | – | – | 50% Reaction Threshold, Group Administered with Test Substance, After Administration (Chung model rat; [5]): 4.03 ± 0.54 g; 50% Reaction Threshold, Group Administered with Test Substance, After Administration (Chung model rat; [6]): 8.45 ± 1.01* g |
| Cl.O=C(/C=C/c1ccccc1F)NCCCN1CCSCC1 [Compound 61, (E)-3-(2-Fluorophenyl)-N-(3-thiomorpholinopropyl)-2-propenamide hydrochloride] | – | – | 178 to 179 °C | 10.64 ± 1.38* g | 11.81 ± 1.47* g | – |
| Cl.O=C(/C=C/c1ccccc1F)NCCCN1CCS(=O)(=O)CC1 [Compound 62, (E)-N-[3-(1,1-Dioxo-1,4-thiazinan-4-yl)propyl]-3-(2-fluorophenyl)-2-propenamide hydrochloride] | 6.17 ± 1.33 g | 9.22 ± 1.28* g | 252 to 253 °C | – | – | – |
| Cl.O=C(/C=C/c1ccc(F)cc1)NCCCN1CCS(=O)(=O)CC1 [Compound 63, (E)-N-[3-(1,1-Dioxo-1,4-thiazinan-4-yl)propyl]-3-(4-fluorophenyl)-2-propenamide hydrochloride] | 3.60 ± 0.35 g | 6.74 ± 0.62* g | 247 to 248 °C | – | – | – |
| Cl.N=C(N)NCCCCNC(=O)/C=C/c1ccccc1F [Compound 65, (E)-3-(2-Fluorophenyl)-N-(4-guanidinobutyl)-2-propenamide hydrochloride] | – | – | 154 to 156 °C | 5.01 ± 0.52* g | 5.24 ± 0.47* g | – |
| O=C(/C=C/c1ccc(F)cc1)NCCCN1CC[S+]([O-])CC1 [Compound 67, (E)-3-(4-Fluorophenyl)-N-[3-(1-oxo-1,4-thiazinan-4-yl)propyl]-2-propenamide] | – | – | 130 to 131 °C | 10.63 ± 1.23* g | 10.71 ± 2.13* g | – |
| Cl.O=C(/C=C/c1ccccc1F)NCCCN1CC[S+]([O-])CC1 [Compound 68, (E)-3-(2-Fluorophenyl)-N-[3-(1-oxo-1,4-thiazinan-4-yl)propyl]-2-propenamide hydrochloride] | 9.04 ± 1.17* g | 11.25 ± 0.94* g | 182 to 183 °C | – | – | – |
| O=C(/C=C/c1ccccc1F)NCc1cccc(N2CCSCC2)c1 [Compound 69, (E)-3-(2-Fluorophenyl)-N-[(3-thiomorpholinophenyl)methyl]-2-propenamide] | – | – | 154 to 155 °C | 3.68 ± 0.40* g | 4.35 ± 0.51* g | – |
| O=C(/C=C/c1ccccc1F)NCc1cccc(N2CC[S+]([O-])CC2)c1 [Compound 70, (E)-3-(2-Fluorophenyl)-N-{[3-(oxo-1,4-thiazinan-4-yl)phenyl]methyl}-2-propenamide] | – | – | 156 to 157 °C | 4.09 ± 0.34* g | 3.41 ± 0.31* g | – |
